Source: ChEMBL document CHEMBL4359931, “Synthesis, biological evaluation and molecular docking studies of new amides of 4-bromothiocolchicine as anticancer agents” (Bioorg Med Chem, 2019)
Activity calls are given as the source filed them. No cut-off for these calls is given here.

How the values were obtained:
[1] = Cell cycle arrest in human ALL5 cells assessed as accumulation in G1 phase at 5 times of antiproliferative IC50 incubated for 48 hrs by propidium iodide based flow cytometry (reference value: 67.4 %); format: functional
[2] = Cell cycle arrest in human ALL5 cells assessed as accumulation in S phase at 5 times of antiproliferative IC50 incubated for 24 hrs by propidium iodide based flow cytometry (reference value: […]); format: functional
MCF7 [3] = assay: Cell cycle arrest in human MCF7 cells assessed as accumulation in S phase at 5 times of antiproliferative IC50 incubated for 72 hrs by propidium iodide based flow cytometry (reference value: 19.8 %); format: functional
MCF7 [4] = assay: Cell cycle arrest in human MCF7 cells assessed as accumulation in S phase at 5 times of antiproliferative IC50 incubated for 24 hrs by propidium iodide based flow cytometry (reference value: 19.9 %); format: functional
MCF7 [5] = assay: Cell cycle arrest in human MCF7 cells assessed as accumulation in G2 phase at 5 times of antiproliferative IC50 incubated for 24 hrs by propidium iodide based flow cytometry (reference value: 22.4 %); format: functional
Homo sapiens [6] = species on record: Homo sapiens; assay: Induction of cell death in human ALL5 cells assessed as decrease in 4 N DNA at 5 times of antiproliferative IC50 incubated for 72 hrs by propidium iodide based flow cytometry; format: functional
[7] = Selectivity index, ratio of IC50 of mouse BALB/3T3 cells to IC50 of human LoVo cells; format: toxicity; details: BALB/3T3 cells versus LoVo cells, read-out: Ratio IC50
Homo sapiens [8] = species on record: Homo sapiens; assay: Induction of cell cycle arrest in human ALL5 cells assessed as increase in 4 N DNA at 5 times of antiproliferative IC50 incubated for 24 hrs by propidium iodide based flow cytometry; format: functional
MCF7 [9] = assay: Cell cycle arrest in human MCF7 cells assessed as accumulation in G1 phase at 5 times of antiproliferative IC50 incubated for 48 hrs by propidium iodide based flow cytometry (reference value: 40.8 %); format: functional
MCF7 [10] = assay: Cell cycle arrest in human MCF7 cells assessed as accumulation in S phase at 5 times of antiproliferative IC50 incubated for 48 hrs by propidium iodide based flow cytometry (reference value: 34 %); format: functional
[11] = Selectivity index, ratio of IC50 of mouse BALB/3T3 cells to IC50 of human MCF7 cells; format: toxicity; details: BALB/3T3 cells versus MCF7 cells, read-out: Ratio IC50
MCF7 [12] = assay: Cell cycle arrest in human MCF7 cells assessed as accumulation in G1 phase at 5 times of antiproliferative IC50 incubated for 72 hrs by propidium iodide based flow cytometry (reference value: 58 %); format: functional
[13] = Antiproliferative activity against human ALL5 cells assessed as reduction in cell viability incubated for 120 hrs by MTT assay; format: functional, cell-based; details: ALL5, 120 h
[14] = Cell cycle arrest in human ALL5 cells assessed as accumulation in G1 phase at 5 times of antiproliferative IC50 incubated for 24 hrs by propidium iodide based flow cytometry (reference value: 68.1 %); format: functional
A549 = assay: Antiproliferative activity against human A549 cells assessed as reduction in cell viability incubated for 120 hrs by MTT assay; format: functional, cell-based; details: A549, 120 h
MCF7 [15] = assay: Antiproliferative activity against human MCF7 cells assessed as reduction in cell viability incubated for 120 hrs by MTT assay; format: functional, cell-based; details: MCF7, 120 h
[16] = Cell cycle arrest in human ALL5 cells assessed as accumulation in S phase at 5 times of antiproliferative IC50 incubated for 72 hrs by propidium iodide based flow cytometry (reference value: 13.5 %); format: functional
[17] = Selectivity index, ratio of IC50 of mouse BALB/3T3 cells to IC50 of human LoVo/DX cells; format: toxicity; details: BALB/3T3 cells versus LoVo/DX cells, read-out: Ratio IC50
LoVo = assay: Antiproliferative activity against human LoVo cells assessed as reduction in cell viability incubated for 120 hrs by MTT assay; format: functional, cell-based
[18] = Cell cycle arrest in human ALL5 cells assessed as accumulation in G2 phase at 5 times of antiproliferative IC50 incubated for 24 hrs by propidium iodide based flow cytometry (reference value: 10.6 %); format: functional
MCF7 [19] = assay: Cell cycle arrest in human MCF7 cells assessed as accumulation in G2 phase at 5 times of antiproliferative IC50 incubated for 72 hrs by propidium iodide based flow cytometry (reference value: 18.6 %); format: functional
MCF7 [20] = assay: Cell cycle arrest in human MCF7 cells assessed as accumulation in subG1 phase at 5 times of antiproliferative IC50 incubated for 72 hrs by propidium iodide based flow cytometry (reference value: 3.59 %); format: functional
MCF7 [21] = assay: Cell cycle arrest in human MCF7 cells assessed as accumulation in G1 phase at 5 times of antiproliferative IC50 incubated for 24 hrs by propidium iodide based flow cytometry (reference value: 49.9 %); format: functional
[22] = Antiproliferative activity against human LoVo/DX cells assessed as reduction in cell viability incubated for 120 hrs by MTT assay; format: functional, cell-based
[23] = Cell cycle arrest in human ALL5 cells assessed as accumulation in G1 phase at 5 times of antiproliferative IC50 incubated for 72 hrs by propidium iodide based flow cytometry (reference value: 59.7 %); format: functional
MCF7 [24] = assay: Cell cycle arrest in human MCF7 cells assessed as accumulation in G2 phase at 5 times of antiproliferative IC50 incubated for 48 hrs by propidium iodide based flow cytometry (reference value: 16 %); format: functional
[25] = Cell cycle arrest in human ALL5 cells assessed as accumulation in subG1 phase at 5 times of antiproliferative IC50 incubated for 24 hrs by propidium iodide based flow cytometry (reference value: 10.5 %); format: functional
[26] = Cell cycle arrest in human ALL5 cells assessed as accumulation in S phase at 5 times of antiproliferative IC50 incubated for 48 hrs by propidium iodide based flow cytometry (reference value: 10.3 %); format: functional
[27] = Selectivity index, ratio of IC50 of mouse BALB/3T3 cells to IC50 of human A549 cells
[28] = Selectivity index, ratio of IC50 of mouse BALB/3T3 cells to IC50 of human ALL5 cells
[29] = Cell cycle arrest in human ALL5 cells assessed as accumulation in subG1 phase at 5 times of antiproliferative IC50 incubated for 48 hrs by propidium iodide based flow cytometry (reference value: 11 %); format: functional
[30] = Cell cycle arrest in human ALL5 cells assessed as accumulation in G2 phase at 5 times of antiproliferative IC50 incubated for 48 hrs by propidium iodide based flow cytometry (reference value: 11.2 %); format: functional
[31] = Resistance index, ratio of IC50 of human LoVo/DX cells to IC50 of human LoVo cells; format: functional
[32] = Cell cycle arrest in human ALL5 cells assessed as accumulation in G2 phase at 5 times of antiproliferative IC50 incubated for 72 hrs by propidium iodide based flow cytometry (reference value: 11.3 %); format: functional
BALB/3T3 = assay: Antiproliferative activity against mouse BALB/3T3 cells assessed as reduction in cell viability incubated for 120 hrs by MTT assay; format: cell-based; details: BALB/3T3, 120 h
MCF7 [33] = assay: Cell cycle arrest in human MCF7 cells assessed as accumulation in subG1 phase at 5 times of antiproliferative IC50 incubated for 24 hrs by propidium iodide based flow cytometry (reference value: 7.79 %); format: functional
[34] = Cell cycle arrest in human ALL5 cells assessed as accumulation in subG1 phase at 5 times of antiproliferative IC50 incubated for 72 hrs by propidium iodide based flow cytometry (reference value: 15.5 %); format: functional
MCF7 [35] = assay: Cell cycle arrest in human MCF7 cells assessed as accumulation in subG1 phase at 5 times of antiproliferative IC50 incubated for 48 hrs by propidium iodide based flow cytometry (reference value: 9.19 %); format: functional
Homo sapiens [36] = species on record: Homo sapiens; assay: Induction of cell cycle arrest in human ALL5 cells assessed as increase in 4 N DNA at 5 times of antiproliferative IC50 incubated for 48 hrs by propidium iodide based flow cytometry; format: functional

Compound | Activity [1] [%] | Activity [2] [%] | Activity (MCF7 [3]) [%] | Activity (MCF7 [4]) [%] | Activity (MCF7 [5]) [%] | Activity (Homo sapiens [6]) | selectivity ratio [7] | Activity (Homo sapiens [8]) | Activity (MCF7 [9]) [%] | selectivity ratio [11] | IC50 [13] [µM] | IC50 (A549) [µM] | IC50 (MCF7 [15]) [µM] | selectivity ratio [17] | IC50 (LoVo) [µM] | IC50 [22] [µM] | Ratio IC50 [27] | Ratio IC50 [28] | Ratio IC50 [31] | IC50 (BALB/3T3) [µM] | further results
COc1c(Br)c2c(c(OC)c1OC)-c1ccc(SC)c(=O)cc1[C@@H](NC(C)=O)CC2 | 33.4 | 14.8 | 6.88 | 6.62 | 72.4 | Active | 7.6 | Active | 14.6 | 7 | 0.0054 | 0.0101 | 0.0148 | 0.8 | 0.0136 | 0.135 | 10.2 | 19.1 | 9.6 | 0.103 | Activity (MCF7 [10]): 7.31%; Activity (MCF7 [12]): 15.5%; Activity [14]: 53.2%; Activity [16]: 24.2%; Activity [18]: 17.7%; Activity (MCF7 [19]): 64.5%; Activity (MCF7 [20]): 13.1%; Activity (MCF7 [21]): 13%; Activity [23]: 28.8%; Activity (MCF7 [24]): 66%; Activity [25]: 14.3%; Activity [26]: 19.4%; Activity [29]: 30.5%; Activity [30]: 16.6%; Activity [32]: 9.83%; Activity (MCF7 [33]): 7.93%; Activity [34]: 37.2%; Activity (MCF7 [35]): 12%
CCN(CC)C(=O)N[C@H]1CCc2c(Br)c(OC)c(OC)c(OC)c2-c2ccc(SC)c(=O)cc21 |  |  |  |  |  |  | 1.5 |  |  | 0.8 | 0.0553 | 0.0991 | 0.0973 | 0.1 | 0.0538 | 0.621 | 0.8 | 1.5 | 11.6 | 0.0804 | 
COc1c(Br)c2c(c(OC)c1OC)-c1ccc(SC)c(=O)cc1[C@@H](NC(=O)CCCCl)CC2 |  |  |  |  |  | Active | 5.3 | Active |  | 1.3 | 0.014 | 0.0534 | 0.0489 | 0.2 | 0.012 | 0.266 | 1.2 | 4.6 | 22.2 | 0.0641 | Activity (Homo sapiens [36]): Active
COc1c(Br)c2c(c(OC)c1OC)-c1ccc(SC)c(=O)cc1[C@@H](NC(=O)c1ccccc1)CC2 | 33.8 | 14.7 | 9.81 | 7.85 | 75 | Active | 2.6 | Active | 14.3 | 1.5 | 0.0058 | 0.0096 | 0.0114 | 0.4 | 0.0066 | 0.0479 | 1.8 | 3 | 7.3 | 0.0174 | Activity (MCF7 [10]): 7.39%; Activity (MCF7 [12]): 13%; Activity [14]: 52%; Activity [16]: 19.7%; Activity [18]: 16.9%; Activity (MCF7 [19]): 61.6%; Activity (MCF7 [20]): 15.6%; Activity (MCF7 [21]): 11%; Activity [23]: 22.1%; Activity (MCF7 [24]): 68.3%; Activity [25]: 16.5%; Activity [26]: 16%; Activity [29]: 24.7%; Activity [30]: 25.4%; Activity [32]: 7.51%; Activity (MCF7 [33]): 6.17%; Activity [34]: 50.6%; Activity (MCF7 [35]): 10%
CCCCCCCCCC(=O)N[C@H]1CCc2c(Br)c(OC)c(OC)c(OC)c2-c2ccc(SC)c(=O)cc21 |  |  |  |  |  |  | 0.2 |  |  | 0.1 | 0.196 | 0.881 | 0.957 | 0.1 | 0.482 | 0.867 | 0.1 | 0.5 | 1.8 | 0.0984 | 
